Species on record: Rattus norvegicus
Test: Open TG-GATES - Regimen: Daily Repeat
Format: toxicity, organism-based, Sprague-Dawley
Parameters: regimen Daily Repeat, gender Male, age 6 weeks
Conditions: in vivo, po, 150 mg/kg, route gavage, dose level High; for APTT / Bas / Eos / Fbg / Hb / Ht / Lym / MCHC / MCV / Mono / Neu / PT / Plat / RBC / Ret / WBC: tissue Blood; for KIDNEY_L / KIDNEY_R / KIDNEY_TOTAL: tissue Kidney; for LIVER: tissue Liver; for ALP / ALT / AST / BUN / CRE / Ca / Cl / DBIL / GLC / IP / K / LDH / Na / PL / RALB / TBIL / TC / TG / TP / gamma-GTP: tissue Plasma

C1CCC(C(CC2CCCCN2)C2CCCCC2)CC1 (centres undefined) [PERHEXILINE]
TERMINAL_BW (72 h, time 3 day): 212.7 g | APTT (72 h, time 3 day): 22.7 s | Bas (72 h, time 3 day): 0% | Eos (72 h, time 3 day): 0.8% | Fbg (72 h, time 3 day): 312.8 mg/dL | Hb (72 h, time 3 day): 13.9 g/dL | Ht (72 h, time 3 day): 41.3% | Lym (72 h, time 3 day): 80% | MCHC (72 h, time 3 day): 33.8% | MCV (72 h, time 3 day): 61.4 fL | Mono (72 h, time 3 day): 1.8% | Neu (72 h, time 3 day): 16.5% | PT (72 h, time 3 day): 16.8 s | Plat (72 h, time 3 day): 130.8 x10_4/uL | RBC (72 h, time 3 day): 673.2 x10_4/ul | Ret (72 h, time 3 day): 4.4% | WBC (72 h, time 3 day): 100 x10_2/uL | KIDNEY_L (72 h, time 3 day): 1 g | KIDNEY_R (72 h, time 3 day): 0.9 g | KIDNEY_TOTAL (72 h, time 3 day): 1.9 g | LIVER (72 h, time 3 day): 9.8 g | ALP (72 h, time 3 day): 1606.6 IU/L | ALT (72 h, time 3 day): 43.6 IU/L | AST (72 h, time 3 day): 69 IU/L | BUN (72 h, time 3 day): 15.4 mg/dL | CRE (72 h, time 3 day): 0.2 mg/dL | Ca (72 h, time 3 day): 11 mg/dL | Cl (72 h, time 3 day): 106.6 meq/L | DBIL (72 h, time 3 day): 0.002 mg/dL | GLC (72 h, time 3 day): 187.2 mg/dL | IP (72 h, time 3 day): 7.4 mg/dL | K (72 h, time 3 day): 4 meq/L | LDH (72 h, time 3 day): 267.2 IU/L | Na (72 h, time 3 day): 142.4 meq/L | PL (72 h, time 3 day): 150 mg/dL | RALB (72 h, time 3 day): 3 g/dL | TBIL (72 h, time 3 day): 0.006 mg/dL | TC (72 h, time 3 day): 75.6 mg/dL | TG (72 h, time 3 day): 107.8 mg/dL | TP (72 h, time 3 day): 5.4 g/dL | gamma-GTP (72 h, time 3 day): 1 IU/L | TERMINAL_BW ([…], time 7 day): 255.5 g | TERMINAL_BW ([…], time 14 day): 291.9 g | TERMINAL_BW ([…], time 28 day): 322.6 g | APTT ([…], time 7 day): 23.3 s | Bas ([…], time 7 day): 0% | Eos ([…], time 7 day): 0.6% | Fbg ([…], time 7 day): 313.8 mg/dL | Hb ([…], time 7 day): 14.3 g/dL | Ht ([…], time 7 day): 42.2% | Lym ([…], time 7 day): 79% | MCHC ([…], time 7 day): 33.9% | MCV ([…], time 7 day): 63.4 fL | Mono ([…], time 7 day): 1.4% | Neu ([…], time 7 day): 17.8% | PT ([…], time 7 day): 15.5 s | Plat ([…], time 7 day): 120.2 x10_4/uL | RBC ([…], time 7 day): 665.4 x10_4/ul | Ret ([…], time 7 day): 5.2% | WBC ([…], time 7 day): 103.4 x10_2/uL | APTT ([…], time 14 day): 22.3 s | Bas ([…], time 14 day): 0% | Eos ([…], time 14 day): 0.8% | Fbg ([…], time 14 day): 311 mg/dL | Hb ([…], time 14 day): 14.4 g/dL | Ht ([…], time 14 day): 41.8% | Lym ([…], time 14 day): 72% | MCHC ([…], time 14 day): 34.4% | MCV ([…], time 14 day): 59.9 fL | Mono ([…], time 14 day): 2.2% | Neu ([…], time 14 day): 24% | PT ([…], time 14 day): 15.8 s | Plat ([…], time 14 day): 115.8 x10_4/uL | RBC ([…], time 14 day): 697.8 x10_4/ul | Ret ([…], time 14 day): 4.7% | WBC ([…], time 14 day): 121.2 x10_2/uL | APTT ([…], time 28 day): 23.3 s | Bas ([…], time 28 day): 0% | Eos ([…], time 28 day): 0.6% | Fbg ([…], time 28 day): 313.8 mg/dL | Hb ([…], time 28 day): 14.3 g/dL | Ht ([…], time 28 day): 42.2% | Lym ([…], time 28 day): 79% | MCHC ([…], time 28 day): 33.9% | MCV ([…], time 28 day): 63.4 fL | Mono ([…], time 28 day): 1.4% | Neu ([…], time 28 day): 17.8% | PT ([…], time 28 day): 15.5 s | Plat ([…], time 28 day): 120.2 x10_4/uL | RBC ([…], time 28 day): 665.4 x10_4/ul | Ret ([…], time 28 day): 5.2% | WBC ([…], time 28 day): 103.4 x10_2/uL | KIDNEY_L ([…], time 7 day): 1.1 g | KIDNEY_R ([…], time 7 day): 1.2 g | KIDNEY_TOTAL ([…], time 7 day): 2.3 g | KIDNEY_L ([…], time 14 day): 1.2 g | KIDNEY_R ([…], time 14 day): 1.2 g | KIDNEY_TOTAL ([…], time 14 day): 2.4 g | KIDNEY_L ([…], time 28 day): 1.2 g | KIDNEY_R ([…], time 28 day): 1.2 g | KIDNEY_TOTAL ([…], time 28 day): 2.5 g | LIVER ([…], time 7 day): 11.9 g | LIVER ([…], time 14 day): 13 g | LIVER ([…], time 28 day): 12.8 g | ALP ([…], time 7 day): 1641 IU/L | ALT ([…], time 7 day): 35 IU/L | AST ([…], time 7 day): 61.8 IU/L | BUN ([…], time 7 day): 17.8 mg/dL | CRE ([…], time 7 day): 0.2 mg/dL | Ca ([…], time 7 day): 10.6 mg/dL | Cl ([…], time 7 day): 106.2 meq/L | DBIL ([…], time 7 day): 0 mg/dL | GLC ([…], time 7 day): 197.6 mg/dL | IP ([…], time 7 day): 8.1 mg/dL | K ([…], time 7 day): 4.3 meq/L | LDH ([…], time 7 day): 200.4 IU/L | Na ([…], time 7 day): 142.8 meq/L | PL ([…], time 7 day): 158.4 mg/dL | RALB ([…], time 7 day): 3 g/dL | TBIL ([…], time 7 day): 0.006 mg/dL | TC ([…], time 7 day): 76 mg/dL | TG ([…], time 7 day): 138.4 mg/dL | TP ([…], time 7 day): 5.7 g/dL | gamma-GTP ([…], time 7 day): 1.4 IU/L | ALP ([…], time 14 day): 1470.2 IU/L | ALT ([…], time 14 day): 38 IU/L | AST ([…], time 14 day): 63.2 IU/L | BUN ([…], time 14 day): 18.2 mg/dL | CRE ([…], time 14 day): 0.2 mg/dL | Ca ([…], time 14 day): 10.7 mg/dL | Cl ([…], time 14 day): 105.8 meq/L | DBIL ([…], time 14 day): 0.004 mg/dL | GLC ([…], time 14 day): 206.6 mg/dL | IP ([…], time 14 day): 7.2 mg/dL | K ([…], time 14 day): 4.2 meq/L | LDH ([…], time 14 day): 180.2 IU/L | Na ([…], time 14 day): 143 meq/L | PL ([…], time 14 day): 151.8 mg/dL | RALB ([…], time 14 day): 3 g/dL | TBIL ([…], time 14 day): 0.008 mg/dL | TC ([…], time 14 day): 70 mg/dL | TG ([…], time 14 day): 154.6 mg/dL | TP ([…], time 14 day): 5.8 g/dL | gamma-GTP ([…], time 14 day): 1.2 IU/L | ALP ([…], time 28 day): 1254 IU/L | ALT ([…], time 28 day): 39.8 IU/L | AST ([…], time 28 day): 62.8 IU/L | BUN ([…], time 28 day): 16 mg/dL | CRE ([…], time 28 day): 0.2 mg/dL | Ca ([…], time 28 day): 10.4 mg/dL | Cl ([…], time 28 day): 107.2 meq/L | DBIL ([…], time 28 day): 0 mg/dL | GLC ([…], time 28 day): 199.2 mg/dL | IP ([…], time 28 day): 6.4 mg/dL | K ([…], time 28 day): 4 meq/L | LDH ([…], time 28 day): 162.8 IU/L | Na ([…], time 28 day): 144.2 meq/L | PL ([…], time 28 day): 148 mg/dL | RALB ([…], time 28 day): 3 g/dL | TBIL ([…], time 28 day): 0.006 mg/dL | TC ([…], time 28 day): 68 mg/dL | TG ([…], time 28 day): 150.4 mg/dL | TP ([…], time 28 day): 5.9 g/dL | gamma-GTP ([…], time 28 day): 1 IU/L

Reference: ChEMBL document CHEMBL3885861, “Open TG-GATES”
